Data on one compound can be found in PMC7686308, “Overcoming the blood–brain barrier by Annexin A1-binding peptide to target brain tumours” (British Journal of Cancer, 2020).

Peptide text beside a SMILES is read from it.

In series [1] the test system is N-terminally His-tagged ANXA1. The experiment in a line: FCS binding to N-terminally His-tagged ANXA1. Also noted: species or system human. The settings on record: IF7C-A546, 37 °C, 1 h, diffusion time. As to the method:
(§1) A mixture of IF7C-A546 with Anxa1 or MC16 (50 μl) was loaded into each well of a 96-well plate and incubated at 37 °C for 1 h. FCS was performed with the MF20 analytical system (Olympus) using a 543 nm He–Ne laser for illumination. Each sample was measured five times with a data acquisition time of 10 sec per measurement. IF7C(RR) binding was defined as an increase in translational diffusion time relative to a control.
(§2) Fig. 2 Binding of IF7 to the ANXA1 N-terminal domain and full-length ANXA1 protein in vitro. a Plate binding assay of N-terminal biotinylated IF7C(RR) to human MC16 peptide and its mutants. Each synthetic MC16 and its mutant peptide (10 nmoles) was bound to maleimide-activated plastic well through its C-terminal cysteine residue. Biotinylated IF7C(RR) peptide (1 μg/mL) was added to each well and binding of biotinylated peptide was detected by peroxidase-conjugated streptavidin and peroxidase colour reaction. b FCS analysis of IF7 with ANXA1 (left) and with MC16 peptides (right) in solution. […] The proposed model was further validated by dG scoring, which was calculated using MOE software with GBVI/WSA, a program allows us to compare calculated and observed energetics.[59] The IF7 docking pose was calculated to be −3.7 kcal/mol.

In series [2] the test system is mouse MC16. The series can be described thus: Plate binding assay to mouse MC16 peptide. As to the method: as §2
Fig. 3 Targeting of IF7 to the brain tumour vasculature in vivo in the mouse. a Binding of IF7 and control peptides to mouse and human MC16 peptides by plate assay. Biotinylated IF7C(RR) and control C(RR) was assessed for their binding to MC16 in a similar manner as in Fig. 2a. b Targeting of fluorescent-labelled IF7 peptide to the brain tumour vasculature in the mouse. […] Blue fluorescence (left panels) represents nuclear Hoechst 33342 and green fluorescence (right) represents Alexa 488. […]

In series [3] the test system is tetrameric MC16. The series can be described thus: FCS binding to tetrameric MC16. Details: species or system human. The conditions noted are these: IF7C-A546, 37 °C, 1 h, diffusion time.
Series [4] has as its system human MC16 peptide. The experiment in a line: Plate binding assay to human MC16 peptide. The conditions noted are these: biotinylated IF7C(RR) 1 μg/mL, MC16 10 nmoles coated, peroxidase-streptavidin. As to the method: (§3) We next assessed IF7 binding to recombinant human ANXA1 protein and human MC16 peptide in three ways (Fig. 2a-c). First, we added biotinylated IF7 in solution to plastic wells coated with monomeric MC16 and determined IF7 binding by peroxidase-conjugated streptavidin and a peroxidase colour reaction (Fig. 2a). […] Thus, we modelled the ANXA1 dimer using the Zdock module for protein–protein docking.[26] The IF7 docking pose was calculated to be −3.7 kcal/mol (Fig. 2d).
as §2

Series [5] in a line: Histology of tumours from mice injected with IF7. The format is in vivo, mouse. The settings on record: histological analysis, data not shown.
Series [6] deals with monomeric MC16. The series can be described thus: FCS binding to monomeric MC16. Also noted: species or system human. The settings on record: IF7C-A546, 37 °C, 1 h, diffusion time. As to the method: as §1, §2
The subject of series [7] is ANXA1 exhibiting a free N-terminus. The experiment in a line: FCS binding to ANXA1 with free N-terminus. Also noted: species or system human. The conditions noted are these: IF7C-A546, 37 °C, 1 h, increase in diffusion time. The protocol: as §1, §2
Series [8] concerns MC16 mutant peptides F7A, K9A and E15A. The experiment in a line: Plate binding assay to MC16 mutant peptides. Also noted: species or system human. The settings on record: biotinylated IF7C(RR) 1 μg/mL, mutant peptide 10 nmoles coated. As to the method:
as §3, §2

In series [9] the test system is ANXA1 with a free N-terminus. The conditions noted are these: plate binding analysis; cited from earlier work. From the text: (§4) We next assessed IF7 binding to recombinant human ANXA1 protein and human MC16 peptide in three ways (Fig. 2a-c). First, we added biotinylated IF7 in solution to plastic wells coated with monomeric MC16 and determined IF7 binding by peroxidase-conjugated streptavidin and a peroxidase colour reaction (Fig. 2a). […] Second, we assessed binding of IF7 and MC16 in solution by fluorescence correlation spectrometry (FCS) ( ...

The subject of series [10] is N-terminally His-Tagged ANXA1. The conditions noted are these: plate binding analysis; cited from earlier work.
From the text: as §4

The test system of series [11] is subcutaneous colon tumours. The conditions noted are these: mouse, in vivo; cited from earlier work.

Consider `CC[C@H](C)[C@H](N)C(=O)N[C@@H](Cc1ccccc1)C(=O)N[C@@H](CC(C)C)C(=O)N[C@@H](CC(C)C)C(=O)N[C@@H](Cc1c[nH]c2ccccc12)C(=O)N[C@@H](CCC(N)=O)C(=O)N[C@@H](CCCNC(=N)N)C(=O)N[C@@H](CS)C(=O)N[C@@H](CCCNC(=N)N)C(=O)N[C@@H](CCCNC(=N)N)C(=O)O` [IF7] (H-IFLLWQRCRR-OH; N-terminus and C-terminus assumed), for which the “binding in solution to N-terminally His-tagged ANXA1” value in series [1] was “not to N-terminally His-tagged ANXA1”. Further, the “binding to human and mouse MC16 compared” value in [2] (Fig. 3a, human versus mouse MC16) is “IF7 bound both human and mouse MC16 peptides equally”. Further, the “binding to mouse MC16” value in [2] (biotinylated IF7C(RR), in a similar manner as in Fig. 2a) is “IF7 binding to N-terminal domain of mouse MC16 was confirmed”. Also, the “binding in solution to tetrameric MC16” value in series [3] is on record as “IF7 bound to tetrameric rather than monomeric MC16”. Further, in series [4], the “IF7 binding to MC16” value is “IF7 bound to WT MC16”. For the same compound, in series [5], the “signs of inflammation in tumours” value is recorded as “did not reveal signs of inflammation”. In addition, in series [6], the “binding in solution to MC16 monomer” value was “the diffusion time of IF7 with MC16 monomer did not increase”. Further, the “binding in solution to untagged ANXA1” value in series [7] was “IF7 bound to ANXA1 exhibiting a free N-terminus”. Further, the “IF7 binding to MC16 mutants” value in series [8] is reported as “binding was significantly reduced”. For the same compound, the “plate binding to ANXA1 with free N-terminus” value in series [9] is listed as “IF7 bound ANXA1 with a free N-terminus”. For the same compound, in [10], the “plate binding to N-terminally His-Tagged ANXA1” value is recorded as “not N-terminally His-Tagged ANXA1”. For the same compound, in [11], the “fluorescent signals 15 min after i.v. injection” value was “fluorescent signals are seen in vesicles at mostly the basal side of vasculature”; the “fluorescent signals 40 min after i.v. injection” value was “fluorescence is seen in the stroma and in tumour cells”.
